Test results reported in publication PMC10006169, “A phase I trial of LXS196, a protein kinase C (PKC) inhibitor, for metastatic uveal melanoma” (British Journal of Cancer, 2023).

System: patients with MUM
Test: Adverse events regardless of study drug relationship
Type: in vivo, human
Procedure: Routine safety assessments, including laboratory assessments, physical examinations, vital signs and electrocardiograms (ECGs), were conducted at regular intervals throughout the study and more frequently as needed following patient assessment by the treating physician. Adverse events (AEs) were assessed continuously according to the National Cancer Institute Common Terminology Criteria for Adverse Events (NCI-CTCAE) v4.03.

**Q.** What does the source list for CC1(N)CCN(c2cccnc2NC(=O)c2nc(-c3ncccc3C(F)(F)F)cnc2N)CC1 [LXS196]?
**A.** ALT increased, all grades (100 mg QD): 0 n (%); ALT increased, grade ≥3 (100 mg QD): 0 n (%); AST increased, all grades (100 mg QD): 0 n (%); AST increased, grade ≥3 (100 mg QD): 0 n (%); Abdominal pain upper, all grades (100 mg QD): 0 n (%); Abdominal pain upper, grade ≥3 (100 mg QD): 0 n (%); Asthenia, all grades (100 mg QD): 0 n (%); Asthenia, grade ≥3 (100 mg QD): 0 n (%); Blood creatinine increased, all grades (100 mg QD): 0 n (%); Blood creatinine increased, grade ≥3 (100 mg QD): 0 n (%); Constipation, all grades (100 mg QD): 1 (33.3) n (%); Constipation, grade ≥3 (100 mg QD): 0 n (%); Decreased appetite, all grades (100 mg QD): 0 n (%); Decreased appetite, grade ≥3 (100 mg QD): 0 n (%); Dermatitis acneiform, all grades (100 mg QD): 0 n (%); Dermatitis acneiform, grade ≥3 (100 mg QD): 0 n (%); Diarrhoea, all grades (100 mg QD): 2 (66.7) n (%); Diarrhoea, grade ≥3 (100 mg QD): 0 n (%); Dry skin, all grades (100 mg QD): 0 n (%); Dry skin, grade ≥3 (100 mg QD): 0 n (%); Fatigue, all grades (100 mg QD): 0 n (%); Fatigue, grade ≥3 (100 mg QD): 0 n (%); Hypotension, all grades (100 mg QD): 0 n (%); Hypotension, grade ≥3 (100 mg QD): 0 n (%); Nasopharyngitis, all grades (100 mg QD): 0 n (%); Nasopharyngitis, grade ≥3 (100 mg QD): 0 n (%); Nausea, all grades (100 mg QD): 2 (66.7) n (%); Nausea, grade ≥3 (100 mg QD): 0 n (%); Neutropenia, all grades (100 mg QD): 0 n (%); Neutropenia, grade ≥3 (100 mg QD): 0 n (%); Oedema peripheral, all grades (100 mg QD): 1 (33.3) n (%); Oedema peripheral, grade ≥3 (100 mg QD): 0 n (%); Patients with ≥1 AE, all grades (100 mg QD): 3 (100) n (%); Patients with ≥1 AE, grade ≥3 (100 mg QD): 0 n (%); Rash, all grades (100 mg QD): 0 n (%); Rash, grade ≥3 (100 mg QD): 0 n (%); Vomiting, all grades (100 mg QD): 2 (66.7) n (%); Vomiting, grade ≥3 (100 mg QD): 0 n (%); ALT increased, all grades (200 mg BID): 1 (16.7) n (%); ALT increased, grade ≥3 (200 mg BID): 0 n (%); AST increased, all grades (200 mg BID): 1 (16.7) n (%); AST increased, grade ≥3 (200 mg BID): 0 n (%); Abdominal pain upper, all grades (200 mg BID): 0 n (%); Abdominal pain upper, grade ≥3 (200 mg BID): 0 n (%); Asthenia, all grades (200 mg BID): 1 (16.7) n (%); Asthenia, grade ≥3 (200 mg BID): 0 n (%); Blood creatinine increased, all grades (200 mg BID): 3 (50.0) n (%); Blood creatinine increased, grade ≥3 (200 mg BID): 0 n (%); Constipation, all grades (200 mg BID): 1 (16.7) n (%); Constipation, grade ≥3 (200 mg BID): 0 n (%); Decreased appetite, all grades (200 mg BID): 1 (16.7) n (%); Decreased appetite, grade ≥3 (200 mg BID): 0 n (%); Dermatitis acneiform, all grades (200 mg BID): 1 (16.7) n (%); Dermatitis acneiform, grade ≥3 (200 mg BID): 0 n (%); Diarrhoea, all grades (200 mg BID): 3 (50.0) n (%); Diarrhoea, grade ≥3 (200 mg BID): 0 n (%); Dry skin, all grades (200 mg BID): 1 (16.7) n (%); Dry skin, grade ≥3 (200 mg BID): 0 n (%); Fatigue, all grades (200 mg BID): 0 n (%); Fatigue, grade ≥3 (200 mg BID): 0 n (%); Hypotension, all grades (200 mg BID): 0 n (%); Hypotension, grade ≥3 (200 mg BID): 0 n (%); Nasopharyngitis, all grades (200 mg BID): 1 (16.7) n (%); Nasopharyngitis, grade ≥3 (200 mg BID): 0 n (%); Nausea, all grades (200 mg BID): 3 (50.0) n (%); Nausea, grade ≥3 (200 mg BID): 0 n (%); Neutropenia, all grades (200 mg BID): 1 (16.7) n (%); Neutropenia, grade ≥3 (200 mg BID): 0 n (%); Oedema peripheral, all grades (200 mg BID): 2 (33.3) n (%); Oedema peripheral, grade ≥3 (200 mg BID): 0 n (%); Patients with ≥1 AE, all grades (200 mg BID): 6 (100) n (%); Patients with ≥1 AE, grade ≥3 (200 mg BID): 3 (50.0) n (%); Rash, all grades (200 mg BID): 0 n (%); Rash, grade ≥3 (200 mg BID): 0 n (%); Vomiting, all grades (200 mg BID): 0 n (%); Vomiting, grade ≥3 (200 mg BID): 0 n (%); ALT increased, all grades (200 mg QD): 1 (25.0) n (%); ALT increased, grade ≥3 (200 mg QD): 0 n (%); AST increased, all grades (200 mg QD): 0 n (%); AST increased, grade ≥3 (200 mg QD): 0 n (%); Abdominal pain upper, all grades (200 mg QD): 0 n (%); Abdominal pain upper, grade ≥3 (200 mg QD): 0 n (%); Asthenia, all grades (200 mg QD): 1 (25.0) n (%); Asthenia, grade ≥3 (200 mg QD): 0 n (%); Blood creatinine increased, all grades (200 mg QD): 1 (25.0) n (%); Blood creatinine increased, grade ≥3 (200 mg QD): 0 n (%); Constipation, all grades (200 mg QD): 3 (75.0) n (%); Constipation, grade ≥3 (200 mg QD): 0 n (%); Decreased appetite, all grades (200 mg QD): 1 (25.0) n (%); Decreased appetite, grade ≥3 (200 mg QD): 0 n (%); Dermatitis acneiform, all grades (200 mg QD): 0 n (%); Dermatitis acneiform, grade ≥3 (200 mg QD): 0 n (%); Diarrhoea, all grades (200 mg QD): 2 (50.0) n (%); Diarrhoea, grade ≥3 (200 mg QD): 0 n (%); Dry skin, all grades (200 mg QD): 0 n (%); Dry skin, grade ≥3 (200 mg QD): 0 n (%); Fatigue, all grades (200 mg QD): 0 n (%); Fatigue, grade ≥3 (200 mg QD): 0 n (%); Hypotension, all grades (200 mg QD): 0 n (%); Hypotension, grade ≥3 (200 mg QD): 0 n (%); Nasopharyngitis, all grades (200 mg QD): 0 n (%); Nasopharyngitis, grade ≥3 (200 mg QD): 0 n (%); Nausea, all grades (200 mg QD): 2 (50.0) n (%); Nausea, grade ≥3 (200 mg QD): 1 (25.0) n (%); Neutropenia, all grades (200 mg QD): 0 n (%); Neutropenia, grade ≥3 (200 mg QD): 0 n (%); Oedema peripheral, all grades (200 mg QD): 1 (25.0) n (%); Oedema peripheral, grade ≥3 (200 mg QD): 0 n (%); Patients with ≥1 AE, all grades (200 mg QD): 4 (100) n (%); Patients with ≥1 AE, grade ≥3 (200 mg QD): 3 (75.0) n (%); Rash, all grades (200 mg QD): 0 n (%); Rash, grade ≥3 (200 mg QD): 0 n (%); Vomiting, all grades (200 mg QD): 2 (50.0) n (%); Vomiting, grade ≥3 (200 mg QD): 1 (25.0) n (%)
